Read-outs that look alike come from different tables or passages of the source.
Tests used:
bovine cardiac myosin = biological target: T1, bovine cardiac myosin (Bos taurus, UniProt Q9BE39); assay: Myosin inhibition assay (PK/LDH-coupled ATPase, bovine cardiac myofibrils); type: biochemical; settings: bovine cardiac myofibrils
T1 construct: The source of cardiac myosin was from bovine heart in the form of skinned myofibrils; from tissue; host or cells: bovine heart, skinned myofibrils
Protocol: Small molecule agents were assessed for their ability to inhibit the enzymatic activity of bovine cardiac myosin using a biochemical assay that couples the release of ADP (adenosine diphosphate) from cardiac myosin to an enzymatic coupling system consisting of pyruvate kinase and lactate dehydrogenase (PK/LDH) and monitoring the absorbance decrease of NADH (at 340 nm) as a function of time. PK converts ADP to ATP (adenosine triphosphate) by converting PEP (phosphoenolpyruvate) to pyruvate. Pyruvate is then converted to lactate by LDH by converting NADH (nicotinamide adenine dinucleotide) to NAD (oxidized nicotinamide adenine dinucleotide). The source of cardiac myosin was from bovine heart in the form of skinned myofibrils. Prior to testing small molecule agents, the bovine myofibrils were assessed for their calcium responsiveness and the calcium concentration that achieves either a 50% (pCa50) or 75% (pCa75) activation of the myofibril system was chosen as the final condition for assessing the inhibitory activity of the small molecule agents. All enzymatic activity was measured in a buffered solution containing 12 mM PIPES (piperazine-N,N′-bis(2-ethanesulfonic acid), 2 mM magnesium chloride at pH 6.8 (PM 12 buffer). Final assay conditions were 1 mg/mL of bovine cardiac myofibrils, 0.4 mM PK/LDH, 50 uM ATP, 0.1 mg/mL BSA (bovine serum albumin), 10 ppm antifoam, 1 mM DTT, 0.5 mM NADH, 1.5 mM PEP at the desired free calcium concentration required to achieve either 50% or 75% activation of the myofibrils.
A dilution series of compound was created in DMSO such that the final desired concentration of compound would be achieved in a volume of 100 μL with a fixed DMSO concentration of 2% (v/v). Typically 2 μL of the dilution series were added to 96 well plate to achieve an 8 or 12 point dose response. Following the addition of 50 μL of a solution containing bovine cardiac myofibrils, PK/LDH and a solution of calcium (that achieved the desired activation), the enzymatic reaction was started with the addition of 50 μL of a solution containing ATP, PEP and NADH. The reaction progress was followed in a Molecular Devices M5e plate reader at ambient temperature using clear half area plates. The plate reader was configured to read absorbance at 340 nm in kinetics mode for 15 minutes. Data were recorded as the slope of the absorbance response to time. The slopes of the absorbance response as a function of time were normalized to slopes on the plate containing DMSO. This normalized rate was then plotted as a function of small molecule concentration and the data was fitted to a four-parameter fit using GraphPad Prism. The midpoint of this plot is the 1050 and is the concentration at which fifty percent of the total response is inhibited.

[1] = tested on: adult rat ventricular myocytes; assay: Cardiomyocyte contractility assay (fractional shortening, IonOptix); type: cell-based; settings: Ventricular myocyte, 5 min, 5 minutes of compound; for inhibition at 0.3 µM: 0.3 uM compound; for inhibition at 1 µM: 1.0 uM compound
Protocol: Contractility of adult rat ventricular myocytes is determined by edge detection with an IonOptix contractility system. Aliquots of myocytes in Tyrode buffer (137 mM NaCl, 3.7 mM KCL, 0.5 mM MgCl2, 1.5 mM CaCl2, 4 mM HEPES, 11 mM glucose) are placed in a perfusion chamber (Series 20 RC-27NE; Warner Instruments), allowed to adhere to the coverslip, and then perfused with 37° C. Tyrode buffer. Myocytes are filed stimulated at 1 Hz and 10V. Only myocytes with clear striations, quiescent prior to pacing, with a cell length of 120-180 microns, a basal fractional shortening equal to 3-8% of the cell length, and a contraction velocity greater than 100 microns per second are used for contractility experiments. To determine the response to compounds, myocytes are first perfused for 60 seconds with Tyrodes buffer followed by 5 minutes of compound and a 140 second washout with Tyrodes buffer. Data is continuously recorded using IonOptix software. Contractility data is analyzed using Ionwizard software (IonOptix). For each cell, 10-20 contractility transients were averaged and compared under basal (no compound) and compound-treated conditions. Compound activity is measured by effects on fractional shortening (FS), where fractional shortening is the ratio of the peak length of the cell at contraction divided by the basal cell length normalized to 100% for an untreated cell.

[2] = tested on: cardiac contractility in rat; assay: Acute pharmacodynamic effect in rat (echocardiographic fractional shortening); type: in vivo; settings: male Sprague-Dawley rats, single dose 4 mg/kg by oral gavage, percent reduction of baseline
Protocol: Representative compounds were tested for their ability to modulate cardiac contractility in rat as a measure of in vivo target engagement. Fractional shortening, a measure of contractility, was determined by noting the change in the diameter of the left ventricle at the end of systole/contraction (LVESd) relative to diastole/relaxation (LVEDd) and expressing this change as the ratio FS=(LVEDd−LVESd)/LVEDd. Fed male Sprague-Dawley rats were lightly anesthetized with isofluorane and baseline fractional shortening was measured in the parasternal position using transthoracic echocardiography (TTE). Following this measurement, animals were recovered and received a single dose of compound (4 mg/kg) by oral gavage. At three hours post-dose, second and third echocardiograms were collected under light anesthesia to determine drug effects on contractility. Effects are represented in Table 5 as a percent reduction of baseline fractional shortening.

[3] = calcium giving 75% activation (pCa75), read-out: Biochemical Activity (pCa75)
[4] = calcium giving 50% activation (pCa50), read-out: Biochemical Activity (pCa50)

T1 sequence (Q9BE39 whole entry): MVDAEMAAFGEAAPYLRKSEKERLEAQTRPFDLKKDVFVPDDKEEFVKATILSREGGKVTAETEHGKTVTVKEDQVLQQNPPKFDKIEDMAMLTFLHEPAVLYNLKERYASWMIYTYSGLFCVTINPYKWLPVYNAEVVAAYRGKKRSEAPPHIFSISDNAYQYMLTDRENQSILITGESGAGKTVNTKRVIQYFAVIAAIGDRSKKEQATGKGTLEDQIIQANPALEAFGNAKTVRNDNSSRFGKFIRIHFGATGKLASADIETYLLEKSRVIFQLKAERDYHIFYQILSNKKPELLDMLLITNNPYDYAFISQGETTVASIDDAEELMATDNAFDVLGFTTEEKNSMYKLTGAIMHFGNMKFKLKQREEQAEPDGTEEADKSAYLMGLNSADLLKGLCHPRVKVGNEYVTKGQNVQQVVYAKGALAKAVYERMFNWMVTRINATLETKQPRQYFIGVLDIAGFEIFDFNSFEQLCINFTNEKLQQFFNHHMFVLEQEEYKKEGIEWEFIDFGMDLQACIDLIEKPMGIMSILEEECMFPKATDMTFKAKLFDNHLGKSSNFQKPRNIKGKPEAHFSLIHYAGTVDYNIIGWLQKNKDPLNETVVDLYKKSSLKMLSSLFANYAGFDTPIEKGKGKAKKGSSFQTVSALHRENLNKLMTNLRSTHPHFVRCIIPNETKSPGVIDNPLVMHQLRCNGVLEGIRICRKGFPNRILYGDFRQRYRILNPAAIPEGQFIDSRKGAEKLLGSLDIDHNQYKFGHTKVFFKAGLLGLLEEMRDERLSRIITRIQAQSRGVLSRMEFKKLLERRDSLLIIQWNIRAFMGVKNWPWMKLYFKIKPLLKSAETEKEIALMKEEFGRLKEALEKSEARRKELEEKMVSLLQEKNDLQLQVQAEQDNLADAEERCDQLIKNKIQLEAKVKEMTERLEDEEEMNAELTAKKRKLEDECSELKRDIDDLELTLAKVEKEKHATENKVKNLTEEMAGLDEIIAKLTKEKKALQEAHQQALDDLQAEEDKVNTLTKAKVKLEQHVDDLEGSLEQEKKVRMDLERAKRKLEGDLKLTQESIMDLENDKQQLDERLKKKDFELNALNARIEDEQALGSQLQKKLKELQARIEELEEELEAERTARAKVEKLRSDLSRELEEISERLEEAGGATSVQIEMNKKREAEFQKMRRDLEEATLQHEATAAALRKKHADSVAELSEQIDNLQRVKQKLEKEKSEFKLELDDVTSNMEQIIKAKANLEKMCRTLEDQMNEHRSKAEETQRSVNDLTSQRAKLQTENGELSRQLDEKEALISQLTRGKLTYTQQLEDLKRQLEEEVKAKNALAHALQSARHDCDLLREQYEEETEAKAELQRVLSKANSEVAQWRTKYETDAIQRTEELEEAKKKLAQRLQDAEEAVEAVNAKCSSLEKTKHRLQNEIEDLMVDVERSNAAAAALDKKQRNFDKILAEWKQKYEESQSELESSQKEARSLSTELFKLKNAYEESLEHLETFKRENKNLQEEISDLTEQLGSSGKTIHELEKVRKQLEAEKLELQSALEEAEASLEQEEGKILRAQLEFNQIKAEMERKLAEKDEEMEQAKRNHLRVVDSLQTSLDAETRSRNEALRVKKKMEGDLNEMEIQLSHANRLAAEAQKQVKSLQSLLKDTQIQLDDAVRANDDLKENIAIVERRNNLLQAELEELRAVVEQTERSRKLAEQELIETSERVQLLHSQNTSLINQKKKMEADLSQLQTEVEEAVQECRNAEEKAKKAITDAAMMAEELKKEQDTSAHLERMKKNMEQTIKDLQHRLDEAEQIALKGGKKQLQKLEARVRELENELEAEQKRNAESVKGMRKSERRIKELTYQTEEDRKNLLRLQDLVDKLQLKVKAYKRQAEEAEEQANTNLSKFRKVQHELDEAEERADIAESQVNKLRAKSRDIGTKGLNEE
T1 sequence (P85100 whole entry partner): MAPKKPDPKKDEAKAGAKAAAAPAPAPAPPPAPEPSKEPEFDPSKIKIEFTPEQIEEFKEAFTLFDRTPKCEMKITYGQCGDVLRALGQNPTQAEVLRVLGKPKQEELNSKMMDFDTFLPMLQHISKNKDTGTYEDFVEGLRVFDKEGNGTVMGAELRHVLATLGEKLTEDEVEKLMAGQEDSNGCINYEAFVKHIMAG
T1 sequence (Q3SZE5 whole entry partner): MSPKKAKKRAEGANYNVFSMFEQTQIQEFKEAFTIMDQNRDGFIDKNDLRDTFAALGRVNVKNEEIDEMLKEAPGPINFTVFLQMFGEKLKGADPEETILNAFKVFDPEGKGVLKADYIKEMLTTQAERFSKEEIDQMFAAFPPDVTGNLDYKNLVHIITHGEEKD

CC(C)n1c(=O)[nH]c(N[C@@H](C)c2ccccc2)c(F)c1=O [Compound 2, (S)-5-Fluoro-3-isopropyl-6-((1-phenylethyl)amino)pyrimidine-2,4(1H,3H)-dione]
IC50 (bovine cardiac myosin; [3]): 1000 to 15000 nM | inhibition at 0.3 µM [1]: 33 to 66% | inhibition at 1 µM [1]: > 66%

C[C@H](Nc1cc(=O)n(C2CCC2)c(=O)[nH]1)c1ccccc1 [Compound 69, (S)-3-cyclobutyl-6-((1-phenylethyl)amino)pyrimidine-2,4(1H,3H)-dione]
% Reduction in Fractional Shortening 3 h post-dose [2]: + (+ represents a relative change in fractional shortening less than 15%) | IC50 (bovine cardiac myosin; [4]): < 1000 nM | IC50 (bovine cardiac myosin; [3]): 1000 to 15000 nM

CC(C)n1c(=O)cc(N[C@@H](C)c2cccc(F)c2)[nH]c1=O [Compound 27]
IC50 (bovine cardiac myosin; [4]): < 1000 nM | IC50 (bovine cardiac myosin; [3]): < 1000 nM | inhibition at 0.3 µM [1]: 33 to 66%

C[C@H](Nc1cc(=O)n(C2(C)CC2)c(=O)[nH]1)c1ccccc1 [Compound 71, (S)-3-(1-methylcyclopropyl)-6-((1-phenylethyl)amino)pyrimidine-2,4(1H,3H)-dione]
% Reduction in Fractional Shortening 3 h post-dose [2]: +++ (+++ presents a relative change in fractional shortening greater than 30%) | IC50 (bovine cardiac myosin; [4]): < 1000 nM

C[C@H](Nc1cc(=O)n(C2CCN(S(C)(=O)=O)CC2)c(=O)[nH]1)c1ccccc1 [Compound 12, (S)-3-(1-(methylsulfonyl)piperidin-4-yl)-6-(1-phenylethylamino)pyrimidine-2,4(1H,3H)-dione]
IC50 (bovine cardiac myosin; [3]): < 1000 nM | inhibition at 1 µM [1]: 33 to 66%

C[C@H](Nc1cc(=O)n(CC(F)(F)F)c(=O)[nH]1)c1ccc2c(c1)OCO2 [Compound 67, (S)-6-((1-(benzo[d][1,3]dioxol-5-yl)ethyl)amino)-3-(2,2,2-trifluoroethyl)pyrimidine-2,4(1H,3H)-dione]
IC50 (bovine cardiac myosin; [4]): < 1000 nM | inhibition at 1 µM [1]: > 66%

CCCn1c(=O)cc(N[C@@H](C)c2ccccc2)[nH]c1=O [Compound 48, (S)-6-((1-phenylethyl)amino)-3-propylpyrimidine-2,4(1H,3H)-dione]
% Reduction in Fractional Shortening 3 h post-dose [2]: +++ (+++ presents a relative change in fractional shortening greater than 30%) | IC50 (bovine cardiac myosin; [4]): 1000 to 15000 nM | IC50 (bovine cardiac myosin; [3]): 1000 to 15000 nM

C[C@H](Nc1cc(=O)n(-c2ccccc2)c(=O)[nH]1)c1ccccc1 [Compound 45]
% Reduction in Fractional Shortening 3 h post-dose [2]: + (+ represents a relative change in fractional shortening less than 15%) | IC50 (bovine cardiac myosin; [4]): < 1000 nM | IC50 (bovine cardiac myosin; [3]): < 1000 nM

CC(C)n1c(=O)cc(N[C@H](C)c2ccccc2)[nH]c1=O [Compound 19R]
inhibition at 1 µM [1]: < 33%

CC(C)n1c(=O)cc(N[C@@H](C)c2ccccc2)[nH]c1=O [Compound 1, (S)-3-Isopropyl-6-((1-phenylethyl)amino) pyrimidine-2,4(1H,3H)-dione]
% Reduction in Fractional Shortening 3 h post-dose [2]: +++ (+++ presents a relative change in fractional shortening greater than 30%) | inhibition at 0.3 µM [1]: 33 to 66% | inhibition at 1 µM [1]: > 66%

CC(C)n1c(=O)cc(N[C@H](c2ccccc2)C2CC2)[nH]c1=O [Compound 6, (S)-6-((Cyclopropyl(phenyl)methyl)amino)-3-isopropylpyrimidine-2,4(1H,3H)-dione]
IC50 (bovine cardiac myosin; [3]): < 1000 nM

C[C@H](Nc1cc(=O)n(-c2cccc(F)n2)c(=O)[nH]1)c1ccccc1 [Compound 137]
IC50 (bovine cardiac myosin; [4]): < 1000 nM

C[C@H](Nc1cc(=O)n(C2(C(F)(F)F)CC2)c(=O)[nH]1)c1ccccc1 [Compound 117]
IC50 (bovine cardiac myosin; [4]): < 1000 nM

O=c1cc(N[C@H](c2ccccc2)C2CC2)[nH]c(=O)n1CC(F)(F)F [Compound 111]
IC50 (bovine cardiac myosin; [4]): 1000 to 15000 nM

Cc1nccn1-c1cccc([C@H](C)Nc2cc(=O)n(C(C)C)c(=O)[nH]2)c1 [Compound 42]
IC50 (bovine cardiac myosin; [3]): < 1000 nM

CC(C)n1c(=O)cc(N[C@@H](C)c2cccc(-n3cccn3)c2)[nH]c1=O [Compound 17, (S)-6-((1-(3-(1H-pyrazol-1-yl)phenyl)ethyl)amino)-3-isopropylpyrimidine-2,4(1H,3H)-dione]
IC50 (bovine cardiac myosin; [3]): < 1000 nM

COc1ccc([C@H](C)Nc2cc(=O)n(C(C)C)c(=O)[nH]2)cc1 [Compound 121]
IC50 (bovine cardiac myosin; [4]): < 1000 nM

CC(C)n1c(=O)[nH]c(N[C@@H](C)c2cccc(Cl)c2)c(F)c1=O [Compound 4, (S)-6-((1-(3-Chlorophenyl)ethyl)amino)-5-fluoro-3-isopropylpyrimidine-2,4(1H,3H)-dione]
IC50 (bovine cardiac myosin; [3]): < 1000 nM

CCn1c(=O)cc(N[C@@H](C)c2ccc3c(c2)OCO3)[nH]c1=O [Compound 108]
IC50 (bovine cardiac myosin; [4]): < 1000 nM

CC(C)n1c(=O)cc(N[C@@H](C)c2cc(F)cc(F)c2)[nH]c1=O [Compound 5, (S)-6-((1-(3,5-Difluorophenyl)ethyl)amino)-3-isopropylpyrimidine-2,4(1H,3H)-dione]
IC50 (bovine cardiac myosin; [3]): < 1000 nM

C[C@H](Nc1cc(=O)n(-c2cccnc2)c(=O)[nH]1)c1ccccc1 [Compound 15, (S)-6-(1-phenylethylamino)-3-(pyridin-3-yl)pyrimidine-2,4(1H,3H)-dione]
IC50 (bovine cardiac myosin; [3]): < 1000 nM

C[C@H](Nc1cc(=O)n(-c2cc(F)cc(F)c2)c(=O)[nH]1)c1ccccc1 [Compound 49, (S)-3-(3,5-difluorophenyl)-6-((1-phenylethyl)amino)pyrimidine-2,4(1H,3H)-dione]
% Reduction in Fractional Shortening 3 h post-dose [2]: +++ (+++ presents a relative change in fractional shortening greater than 30%) | IC50 (bovine cardiac myosin; [4]): < 1000 nM | IC50 (bovine cardiac myosin; [3]): < 1000 nM

COc1cccc([C@H](C)Nc2cc(=O)n(C3CCOCC3)c(=O)[nH]2)c1 [Compound 10, (S)-6-((1-(3-methoxyphenyl)ethyl)amino)-3-(tetrahydro-2H-pyran-4-yl)pyrimidine-2,4(1H,3H)-dione]
IC50 (bovine cardiac myosin; [3]): < 1000 nM

C[C@H](Nc1cc(=O)n(CC2CC2)c(=O)[nH]1)c1ccccc1 [Compound 110]
IC50 (bovine cardiac myosin; [4]): 1000 to 15000 nM

C[C@H](Nc1cc(=O)n(CC2CC2)c(=O)[nH]1)c1cccc(C(F)(F)F)c1 [Compound 126]
IC50 (bovine cardiac myosin; [4]): 1000 to 15000 nM

CC(C)n1c(=O)cc(N[C@@H](C)c2ccc3c(c2)OC(F)(F)O3)[nH]c1=O [Compound 119]
IC50 (bovine cardiac myosin; [4]): < 1000 nM

C[C@H](Nc1cc(=O)n(C2CC2)c(=O)[nH]1)c1ccccc1 [Compound 37]
IC50 (bovine cardiac myosin; [3]): 1000 to 15000 nM

CC(C)n1c(=O)cc(N[C@@H](COCc2ccccc2)c2ccccc2)[nH]c1=O [Compound 64, (R)-6-((2-(benzyloxy)-1-phenylethyl)amino)-3-isopropylpyrimidine-2,4(1H,3H)-dione]
IC50 (bovine cardiac myosin; [4]): 1000 to 15000 nM

C[C@H](Nc1cc(=O)n(C2CCOC2)c(=O)[nH]1)c1ccccc1 (stereo partly drawn) [Compound 11, 6-(((S)-1-phenylethyl)amino)-3-(tetrahydrofuran-3-yl)pyrimidine-2,4(1H,3H)-dione]
IC50 (bovine cardiac myosin; [3]): 1000 to 15000 nM

CCn1c(=O)cc(N[C@H](c2ccccc2)C2CCC2)[nH]c1=O [Compound 106]
IC50 (bovine cardiac myosin; [4]): < 1000 nM

CC(C)n1c(=O)cc(N[C@@H](C)c2ccccc2C(F)(F)F)[nH]c1=O [Compound 70, (S)-3-isopropyl-6-((1-(2-(trifluoromethyl)phenyl)ethyl)amino) pyrimidine-2,4(1H,3H)-dione]
% Reduction in Fractional Shortening 3 h post-dose [2]: ++ (++ represents a relative change in fractional shortening between 15-30%) | IC50 (bovine cardiac myosin; [3]): 1000 to 15000 nM

CCn1c(=O)cc(N[C@@H](C)c2cccc(C(F)(F)F)c2)[nH]c1=O [Compound 124]
IC50 (bovine cardiac myosin; [4]): < 1000 nM

CCC(CC)n1c(=O)cc(N[C@@H](C)c2ccccc2)[nH]c1=O [Compound 83]
IC50 (bovine cardiac myosin; [3]): < 1000 nM

CC[C@H](Nc1cc(=O)n(CC(F)(F)F)c(=O)[nH]1)c1ccccc1 [Compound 109]
IC50 (bovine cardiac myosin; [4]): 1000 to 15000 nM

CCCn1c(=O)cc(N[C@@H](C)c2cccc(F)c2)[nH]c1=O [Compound 129]
IC50 (bovine cardiac myosin; [4]): 1000 to 15000 nM

Source: patent USRE50050E1, “Pyrimidinedione compounds” (MyoKardia, Inc., priority 2013, dated 2024)
